From ChEMBL document CHEMBL1129229, “Synthesis and trypanocidal activity of the bis-carba analogue of pentamidine” (1996)

Test system: Mus musculus
Assay: Effective dose against Trypanosoma brucei S427/118 infection in mice, administered ip after 24 hr
Assay type: functional

Structure (SMILES) | ED50
N=C(N)c1ccc(OCCCCCOc2ccc(C(=N)N)cc2)cc1 [PENTAMIDINE] | 0.38 mg/kg
N=C(N)c1ccc(CCCCCCCc2ccc(C(=N)N)cc2)cc1 | 7.3 mg/kg
